Data reported in the supplement of paper PMC10307832.

Each cell line was assayed with N[C@@H]1CCCN(c2c(/C=C3\SC(=O)NC3=O)cccc2-c2ccccc2)C1 [AZD1208] + CC(=O)Nc1cccc(-n2c(=O)n(C3CC3)c(=O)c3c(Nc4ccc(I)cc4F)n(C)c(=O)c(C)c32)c1 [Trametinib] (partner 0.02 µM) (assay: relative viability (nuclei count vs DMSO), 5 days (fraction); higher = more cells survive). Details: first compound 0.08 µM.
Method in brief: (§1)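 Relative viability divides the nuclei count in treated wells by that in vehicle wells. Lung cancer cell lines were seeded in 1536-well plates, dosed by pin tool the next day, and fixed and stained after 5 days in one step with final 0.05% Triton X-100, 1% formaldehyde and 1 ug/ml Hoechst. Dosing was a single drug or a fixed anchor-drug dose plus five library-drug doses (not always all listed) in √10 steps, and values are medians of duplicate plates imaged at 4×.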

Cell Line	relative viability
NCI-H522	0.686
NCI-H838	0.482
NCI-H1650	0.575
NCI-H2009	0.264
NCI-H1993	0.496
PC-14	0.681
LCLC-103H	0.63
NCI-H596	0.759
NCI-H2228	0.578
EMC-BAC-2	0.852
NCI-H2087	0.219
HCC-366	0.328
NCI-H1666	0.764
NCI-H647	0.383
LK-2	0.574
NCI-H2126	0.576
NCI-H2342	0.803

Cell Line	relative viability
SK-MES-1	0.47
H3255	0.537
COR-L23	0.511
COR-L 105	0.435
LOU-NH91	0.785
ChaGo-K-1	0.884
NCI-H2170	0.966
NCI-H3122	0.201
HOP-62	0.372
HCC-44	1.1
SW 900	0.721
LU99A	0.574
BEN	0.843
HARA	0.551
NCI-H1648	0.588
HCC-78	0.689

Same assay, conditions: first compound 0.253 µM

Cell Line	relative viability
NCI-H522	0.663
NCI-H838	0.629
NCI-H1650	0.667
NCI-H2009	0.249
NCI-H1993	0.515
PC-14	0.704
LCLC-103H	0.651
NCI-H596	0.905
NCI-H2228	0.669
EMC-BAC-2	0.83
NCI-H2087	0.167
HCC-366	0.327
NCI-H1666	0.907
NCI-H647	0.503
LK-2	0.502
NCI-H2126	0.524
NCI-H2342	0.806

Cell Line	relative viability
SK-MES-1	0.509
H3255	0.616
COR-L23	0.581
COR-L 105	0.366
LOU-NH91	0.786
ChaGo-K-1	0.905
NCI-H2170	1
NCI-H3122	0.221
HOP-62	0.381
HCC-44	1.12
SW 900	0.941
LU99A	0.575
BEN	0.754
HARA	0.743
NCI-H1648	0.441
HCC-78	0.806

Same assay, conditions: first compound 0.8 µM

Cell Line	relative viability
NCI-H522	0.55
NCI-H838	0.448
NCI-H1650	0.536
NCI-H2009	0.256
NCI-H1993	0.447
PC-14	0.512
LCLC-103H	0.683
NCI-H596	0.79
NCI-H2228	0.36
EMC-BAC-2	0.777
NCI-H2087	0.159
HCC-366	0.297
NCI-H1666	0.687
NCI-H647	0.567
LK-2	0.511
NCI-H2126	0.498
NCI-H2342	0.781

Cell Line	relative viability
SK-MES-1	0.54
H3255	0.636
COR-L23	0.525
COR-L 105	0.408
LOU-NH91	0.759
ChaGo-K-1	0.78
NCI-H2170	0.869
NCI-H3122	0.192
HOP-62	0.379
HCC-44	1.02
SW 900	0.697
LU99A	0.515
BEN	0.636
HARA	0.761
NCI-H1648	0.435
HCC-78	0.702

Same assay, conditions: first compound 2.53 µM

Cell Line	relative viability
NCI-H522	0.635
NCI-H838	0.476
NCI-H1650	0.517
NCI-H2009	0.224
NCI-H1993	0.477
PC-14	0.662
LCLC-103H	0.686
NCI-H596	0.654
NCI-H2228	0.525
EMC-BAC-2	0.806
NCI-H2087	0.227
HCC-366	0.286
NCI-H1666	0.667
NCI-H647	0.471
LK-2	0.445
NCI-H2126	0.467
NCI-H2342	0.678

Cell Line	relative viability
SK-MES-1	0.533
H3255	0.624
COR-L23	0.57
COR-L 105	0.625
LOU-NH91	0.825
ChaGo-K-1	0.88
NCI-H2170	0.868
NCI-H3122	0.203
HOP-62	0.377
HCC-44	1.1
SW 900	0.641
LU99A	0.508
BEN	0.768
HARA	0.542
NCI-H1648	0.402
HCC-78	0.834

Same assay, conditions: first compound 8 µM

Cell Line	relative viability
NCI-H522	0.677
NCI-H838	0.457
NCI-H1650	0.537
NCI-H2009	0.207
NCI-H1993	0.376
PC-14	0.524
LCLC-103H	0.681
NCI-H596	0.446
NCI-H2228	0.343
EMC-BAC-2	0.702
NCI-H2087	0.193
HCC-366	0.221
NCI-H1666	0.725
NCI-H647	0.358
LK-2	0.474
NCI-H2126	0.434
NCI-H2342	0.637

Cell Line	relative viability
SK-MES-1	0.482
H3255	0.519
COR-L23	0.301
COR-L 105	0.378
LOU-NH91	0.728
ChaGo-K-1	0.806
NCI-H2170	0.57
NCI-H3122	0.165
HOP-62	0.322
HCC-44	1.05
SW 900	0.708
LU99A	0.446
BEN	0.576
HARA	0.35
NCI-H1648	0.497
HCC-78	0.919

The cell lines below were run with N[C@@H]1CCCN(c2c(/C=C3\SC(=O)NC3=O)cccc2-c2ccccc2)C1 [AZD1208] + C[C@]1(O)C[C@@H](c2nc(-c3ccc4ccc(-c5ccccc5)nc4c3)c3c(N)nccn32)C1 [Linsitinib] (partner 1 µM) in the same assay as above. Details: first compound 0.08 µM.
Method in brief: as §1

Cell Line	relative viability
NCI-H838	0.992
EBC-1	0.981
NCI-H1703	0.751
NCI-H2009	1.22
PC-14	0.942
LCLC-103H	1.04
NCI-H596	0.97
NCI-H2228	0.493
EMC-BAC-2	0.848
NCI-H2087	0.87
Calu-6	0.86
HCC-366	0.626
NCI-H1666	0.831
NCI-H647	1.22
LK-2	0.43
NCI-H2126	0.678
SK-MES-1	1.01

Cell Line	relative viability
H3255	1.02
COR-L23	0.84
COR-L 105	0.985
IA-LM	0.625
LOU-NH91	0.953
NCI-H3122	1.09
HOP-62	1.06
HCC-44	0.634
A549	0.513
LU99A	0.504
BEN	0.815
HARA	0.948
HCC-78	0.513
NCI-H1299	1.03
NCI-H1563	1.18
ABC-1	0.808

Same assay, conditions: first compound 0.253 µM

Cell Line	relative viability
NCI-H838	1.09
EBC-1	1.08
NCI-H1703	0.56
NCI-H2009	1.13
NCI-H1993	0.722
PC-14	1.12
LCLC-103H	1.09
NCI-H596	1.02
NCI-H2228	0.596
EMC-BAC-2	0.818
NCI-H2087	0.941
Calu-6	1.03
HCC-366	0.588
NCI-H1666	0.677
NCI-H647	1.1
LK-2	0.523
NCI-H2126	0.647

Cell Line	relative viability
SK-MES-1	1.02
H3255	1.05
COR-L23	1.09
COR-L 105	0.884
IA-LM	0.827
LOU-NH91	0.934
NCI-H3122	1.03
HOP-62	0.843
HCC-44	0.676
A549	0.553
LU99A	0.5
BEN	0.806
HARA	1.02
HCC-78	0.495
NCI-H1299	1.13
NCI-H1563	1.19
ABC-1	0.717

Same assay, conditions: first compound 0.8 µM

Cell Line	relative viability
NCI-H838	0.815
EBC-1	0.821
NCI-H1703	0.602
NCI-H2009	1.18
NCI-H1993	0.731
PC-14	0.977
LCLC-103H	1.06
NCI-H596	0.975
NCI-H2228	0.546
EMC-BAC-2	0.747
NCI-H2087	0.934
Calu-6	0.919
HCC-366	0.5
NCI-H1666	0.748
NCI-H647	1.06
LK-2	0.302
NCI-H2126	0.65

Cell Line	relative viability
SK-MES-1	1.06
H3255	0.866
COR-L23	0.824
COR-L 105	0.972
IA-LM	0.524
LOU-NH91	0.855
NCI-H3122	1.03
HOP-62	1.05
HCC-44	0.665
A549	0.504
LU99A	0.51
BEN	0.654
HARA	0.899
HCC-78	0.45
NCI-H1299	0.997
NCI-H1563	1.18
ABC-1	0.626

Same assay, conditions: first compound 2.53 µM

Cell Line	relative viability
NCI-H838	1.02
EBC-1	0.905
NCI-H1703	0.651
NCI-H2009	1.14
NCI-H1993	0.739
PC-14	1
LCLC-103H	1.11
NCI-H596	1.01
EMC-BAC-2	0.815
NCI-H2087	1
Calu-6	0.967
HCC-366	0.558
NCI-H1666	0.671
NCI-H647	1.03
LK-2	0.263
NCI-H2126	0.633
SK-MES-1	1.04

Cell Line	relative viability
H3255	0.973
COR-L23	0.825
COR-L 105	0.949
IA-LM	0.529
LOU-NH91	0.949
NCI-H3122	1.02
HOP-62	1.11
HCC-44	0.672
A549	0.462
LU99A	0.397
BEN	0.572
HARA	0.964
HCC-78	0.439
NCI-H1299	1.01
NCI-H1563	1.26
ABC-1	0.747

Same assay, conditions: first compound 8 µM

Cell Line	relative viability
NCI-H838	0.817
EBC-1	0.764
NCI-H1703	0.508
NCI-H2009	1.12
NCI-H1993	0.654
PC-14	0.914
LCLC-103H	0.891
NCI-H596	0.714
NCI-H2228	0.356
EMC-BAC-2	0.796
NCI-H2087	0.787
Calu-6	0.872
HCC-366	0.439
NCI-H1666	0.657
NCI-H647	1.06
LK-2	0.268
NCI-H2126	0.623
SK-MES-1	0.969
H3255	0.891
